Columns and labels:
Shay ulcers = Shay ulcers (pylorus ligation); assay type: in vivo, Male Sprague-Dawley strain rats; conditions: for Ulcer Grade 0 (number of rats): 0=no lesion; for Ulcer Grade 1 (number of rats): 1=hemorrhagic suffusion; for Ulcer Grade 2 (number of rats): 2=1-5 small ulcers (<3 mm); for Ulcer Grade 3 (number of rats): 3=many small ulcers (more than 5) or 1 ulcer of marked size; for Ulcer Grade 4 (number of rats): 4=many ulcers of marked size; for Ulcer Grade 5 (number of rats): 5=perforated ulcer
Procedure: The rats were sacrificed 18 hours later by an overdose of ether and the stomach removed. The stomach was incised along the greater curvature and the surface area of each lesion in forestomach was measured by the naked eye. […] 4=many ulcers of marked size 5=perforated ulcer The test drugs were given intraperitoneally, immediately after pylorus ligation.

chymotrypsin = chymotrypsin (Bos taurus, UniProt P00766); assay: Inhibitory effects on chymotrypsin (hydrolysis of N-acetyl-L-tyrosine ethyl ester); assay type: biochemical; conditions: 37° C., 10 minutes; concentration not given
Procedure: The compounds of the formula (I) have excellent inhibitory effects on protease. The inhibitory effects were determined by the following methods: Inhibitory effects on the compounds of chymotrypsin were determined according to the method described by M. […] In particular, inhibitory effects of the compounds on hydrolysis of N-acetyl-L-tyrosine ethyl ester by chymotrypsin were examined (incubated at 37° C. for 10 minutes).

N=C(N)NC[C@H]1CC[C@H](C(=O)Oc2ccccc2C(=O)OCc2ccccc2)CC1 [Compound 1]
10: Ulcer Grade 0 (number of rats) (Shay ulcers; 150 mg/kg i.p.)
100%: Inhibition (%) Chymotrypsin (chymotrypsin)
8: Ulcer Grade 0 (number of rats) (Shay ulcers; 75 mg/kg i.p.)
7: Ulcer Grade 0 (number of rats) (Shay ulcers; 300 mg/kg i.p.)
2: Ulcer Grade 2 (number of rats) (Shay ulcers; 75 mg/kg i.p.)
0: Ulcer Grade 1 (number of rats) (Shay ulcers; 75 mg/kg i.p.) | Ulcer Grade 3 (number of rats) (Shay ulcers; 75 mg/kg i.p.) | Ulcer Grade 4 (number of rats) (Shay ulcers; 75 mg/kg i.p.) | Ulcer Grade 5 (number of rats) (Shay ulcers; 75 mg/kg i.p.) | Ulcer Grade 1 (number of rats) (Shay ulcers; 150 mg/kg i.p.) | Ulcer Grade 2 (number of rats) (Shay ulcers; 150 mg/kg i.p.) | Ulcer Grade 3 (number of rats) (Shay ulcers; 150 mg/kg i.p.) | Ulcer Grade 4 (number of rats) (Shay ulcers; 150 mg/kg i.p.) | Ulcer Grade 5 (number of rats) (Shay ulcers; 150 mg/kg i.p.) | Ulcer Grade 1 (number of rats) (Shay ulcers; 300 mg/kg i.p.) | Ulcer Grade 2 (number of rats) (Shay ulcers; 300 mg/kg i.p.) | Ulcer Grade 3 (number of rats) (Shay ulcers; 300 mg/kg i.p.) | Ulcer Grade 4 (number of rats) (Shay ulcers; 300 mg/kg i.p.) | Ulcer Grade 5 (number of rats) (Shay ulcers; 300 mg/kg i.p.)

Reference: patent US4348410A, “Cyclohexane carboxylic acid derivatives” (Nippon Chemiphar Co., Ltd., priority 1979, dated 1982)
